From ChEMBL document CHEMBL5053501, “1,4,9-Triazaspiro[5.5]undecan-2-one Derivatives as Potent and Selective METTL3 Inhibitors” (J Med Chem, 2021)
Converted amounts (≈) assume the structure as drawn. Values belong to the compound of their own block, whether it stands above or below them. The source made the active and inactive calls. No cut-off for these calls is given here.

Assays:
Homo sapiens [1] = organism: Homo sapiens; assay: Binding affinity to human METTL16 assessed as change in melting temperature at 100 uM by thermal shift assay
Homo sapiens [2] = organism: Homo sapiens; assay: Binding affinity to human METTL1 assessed as change in melting temperature at 100 uM by thermal shift assay
[3] = Reduction in m6A/A ratio in poly-adenylated RNA fraction of human MOLM-13 cells measured after 16 hrs by UPLC-MS/MS analysis; format: functional, cell-based
MOLM-13 [4] = assay: Growth inhibition of human MOLM-13 cells assessed as cell viability measured after 3 days; format: functional; settings: MOLM-13, 72 h, time 3 day
PC-3 [5] = assay: Growth inhibition of human PC-3 cells assessed as cell viability measured after 3 days; format: functional; settings: PC-3, 72 h, time 3 day
MOLM-13 [6] = assay: Effect on METTL3 expression in human MOLM-13 cells at 10 uM incubated for 16 hrs by Western blotting analysis; format: functional, cell-based
PC-3 [7] = assay: Effect on METTL3 expression in human PC-3 cells at 10 uM incubated for 16 hrs by Western blotting analysis; format: functional, cell-based
MOLM-13 [8] = assay: Reduction in m6A levels in mRNA fraction in human MOLM-13 cells at 10 uM measured after 6 days by UPLC-MS/MS analysis; format: functional, cell-based; settings: time 6.0 day
MOLM-13 [9] = assay: Reduction in m1A levels in mRNA fraction in human MOLM-13 cells at 10 uM measured after 6 days by UPLC-MS/MS analysis; format: functional, cell-based; settings: time 6.0 day
MOLM-13 [10] = assay: Reduction in m7G levels in mRNA fraction in human MOLM-13 cells at 10 uM measured after 6 days by UPLC-MS/MS analysis; format: functional, cell-based; settings: time 6.0 day
MOLM-13 [11] = assay: Reduction in m6A levels in total RNA fraction in human MOLM-13 cells at 10 uM measured after 6 days by UPLC-MS/MS analysis; format: functional, cell-based; settings: time 6.0 day
MOLM-13 [12] = assay: Reduction in m6Am levels in total RNA fraction in human MOLM-13 cells at 10 uM measured after 6 days by UPLC-MS/MS analysis; format: functional, cell-based; settings: time 6.0 day
[13] = molecular target: T1, METTL3/METTL14 (Homo sapiens) (UniProt Q86U44+Q9HCE5); settings: dose 100.0 µM
[14] = Kinetic solubility of the compound in PBS at pH 7.4 at 100 uM incubated for 1 hr by LCMS/MS analysis; format: physicochemical; settings: read-out: Kinetic_solubility
[15] = Metabolic stability in rat liver microsomes assessed as half life by LC-MS analysis; format: ADME, Microsome
[16] = molecular target: N6-adenosine-methyltransferase catalytic subunit (Homo sapiens, UniProt Q86U44); assay: Inhibition of recombinant […] (unknown origin) expressed in baculovirus infected Sf9 cells assessed as decrease in N6-methyladenosine level in oligonucleotide substrate by TR-FRET assay
Homo sapiens [17] = organism: Homo sapiens; assay: Binding affinity to human METTL16 assessed as change in melting temperature at 1000 uM by thermal shift assay
Homo sapiens [18] = organism: Homo sapiens; assay: Binding affinity to human METTL1 assessed as change in melting temperature at 1000 uM by thermal shift assay
[19] = molecular target: T1, METTL3/METTL14 (Homo sapiens); settings: dose 1000.0 µM

Sequence of N6-adenosine-methyltransferase catalytic subunit (Q86U44 whole entry): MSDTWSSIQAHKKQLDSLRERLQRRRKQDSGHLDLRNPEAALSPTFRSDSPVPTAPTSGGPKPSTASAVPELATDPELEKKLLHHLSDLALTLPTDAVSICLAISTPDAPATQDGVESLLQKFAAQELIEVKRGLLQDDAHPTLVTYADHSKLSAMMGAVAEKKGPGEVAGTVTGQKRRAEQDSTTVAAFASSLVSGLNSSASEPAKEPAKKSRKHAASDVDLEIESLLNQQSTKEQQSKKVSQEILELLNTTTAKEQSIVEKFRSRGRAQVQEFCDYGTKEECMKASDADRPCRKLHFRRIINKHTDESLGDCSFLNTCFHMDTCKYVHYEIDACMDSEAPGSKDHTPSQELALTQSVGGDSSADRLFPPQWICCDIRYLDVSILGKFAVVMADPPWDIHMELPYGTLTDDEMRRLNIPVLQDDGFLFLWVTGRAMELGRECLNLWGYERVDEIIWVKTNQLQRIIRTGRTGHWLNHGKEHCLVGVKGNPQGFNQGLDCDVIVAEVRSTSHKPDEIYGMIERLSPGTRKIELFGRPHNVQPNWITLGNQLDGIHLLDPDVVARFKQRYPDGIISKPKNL

Structure (SMILES): CC1(C)CCN(Cc2ccc(N3CC(=O)NC4(CCN(c5nc(Cl)nc6[nH]ccc56)CC4)C3)cc2)CC1
solubility kinetic at 1 h, 100 µM [14]: 45 µM (≈ 23.5 µg/mL)
half-life [15]: 32 min

Structure (SMILES): CNc1cc(N2CC3(CN(c4ccc(CN5CCC(C)(C)CC5)cc4)CC(=O)N3)C2)ncn1
solubility kinetic at 1 h, 100 µM [14]: 86 µM (≈ 38.7 µg/mL)
half-life [15]: 70 min

Structure (SMILES): CNc1cc(N2CCCC(O)(CNC(=O)c3ccc(CN4CCC(C)(C)CC4)cc3)C2)ncn1 (configuration not stated)
IC50 [16]: 7 µM

The next lines start with results.

deltaTm (Homo sapiens [1]): inactive
deltaTm (Homo sapiens [2]): inactive
EC50 [3]: 0.7 µM
GI50 (MOLM-13 [4]): 12 µM
GI50 (PC-3 [5]): 70 µM
ΔTm [13]: 4.7 °C
Structure (SMILES): CNc1cc(N2CCC3(CC2)CN(c2cc(F)c(CN4CCC(C)(C)CC4)cc2F)CC(=O)N3)ncn1
Activity (MOLM-13 [6]): Active
Activity (PC-3 [7]): Active
Activity (MOLM-13 [8]): Active
Activity (MOLM-13 [9]): inactive
Activity (MOLM-13 [10]): inactive
Activity (MOLM-13 [11]): Active
Activity (MOLM-13 [12]): Active

IC50 [16]: 0.59 µM
ΔTm (Homo sapiens [17]): 0.8 °C
ΔTm (Homo sapiens [18]): 6.3 °C
ΔTm [19]: 3.7 °C
Structure (SMILES): Nc1ncnc2c1ncn2[C@@H]1O[C@H](CSCC[C@H](N)C(=O)O)[C@@H](O)[C@H]1O [S-ADENOSYLHOMOCYSTEINE]
